Data on 39 compounds can be found in patent US10787444B2, “Compounds for the modulation of myc activity” (Syros Pharmaceuticals, Inc., priority 2015, dated 2020).

The structures appear in SMILES notation. Structures can show the parent of a compound that is named as a salt.

In test [1] the test system is human small lung cancer cell line H2171. Briefly: Cell Viability Assay (ATPlite). The test is classed as cell-based. As to conditions: Homo sapiens, NCI-H2171, 72 h, Table 2, compounds of FIG. 1; H2171 cells, three days, ATPlite; calculated IC50 class; read-out: H2171 Activity. The method in brief: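 H2171 cells were plated at 20,000 cells/mL and dosed immediately by pin transfer with a 10-point dose series in DMSO. After three days at 37° C, ATPlite luminescence served as the viability readout.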

For the next test, the target named is T1, c-Myc/Max/Ebox DNA (Homo sapiens, UniProt P01106).
T1 construct: his6 (cleaved yes)
T1 sequence (P01106 whole entry): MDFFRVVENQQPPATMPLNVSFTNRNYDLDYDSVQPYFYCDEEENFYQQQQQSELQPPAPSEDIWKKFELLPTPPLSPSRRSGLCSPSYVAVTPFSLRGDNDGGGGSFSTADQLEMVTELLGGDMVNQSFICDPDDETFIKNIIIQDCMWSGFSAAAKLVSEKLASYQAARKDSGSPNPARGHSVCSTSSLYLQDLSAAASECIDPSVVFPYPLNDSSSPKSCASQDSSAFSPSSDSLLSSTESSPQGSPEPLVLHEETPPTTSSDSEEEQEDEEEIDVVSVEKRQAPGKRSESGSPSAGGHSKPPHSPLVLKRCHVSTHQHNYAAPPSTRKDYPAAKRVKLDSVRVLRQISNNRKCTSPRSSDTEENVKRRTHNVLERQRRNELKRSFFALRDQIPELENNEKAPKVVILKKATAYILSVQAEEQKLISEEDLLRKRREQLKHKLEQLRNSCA
Briefly: c-Myc/Max/Ebox DNA AlphaScreen Assay. The test is classed as binding. As to conditions: Table 2, compounds of FIG. 1; calculated IC50 class. The essentials:
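Compounds were preincubated with free c-Myc (20 nM), biotinylated single-Ebox DNA (10 nM) and Ni acceptor beads before his6-Max (5 nM) and streptavidin donor beads were added. Buffer was 50 mM HEPES pH 8.0, 150 mM NaCl, BSA, Tween20, glycogen and DTT, with DMSO ≤2%. After 2 h incubation, AlphaScreen signal was read at 680 nm excitation and 520–620 nm emission.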

Take `CCC(C)NCCC(=O)Nc1sc2c(c1-c1nc3cc(-c4ccncc4)ccc3s1)CCNC2C` [Compound 590, 3-(((S)-sec-butyl)amino)-N—((R)-7-methyl-3-(5-pyridin-4-yl)benzo[d]thiazol-2-yl)-4,5,6,7-tetrahydrothieno[2,3-c]pyridin-2-yl)propanamide]: the IC50 (in test [1]; at c-Myc/Max/Ebox DNA) was below 300 nM in each case.

On to `Cc1ncsc1-c1ccc(CNC(=O)[C@@H]2C[C@@H](O)CN2C(=O)[C@@H](NC(=O)CCOCCOCCOCCOCCOCCOCCNCCC(=O)Nc2sc3c(c2-c2nc4ccccc4s2)CCNC3)C(C)(C)C)cc1` [Compound 591, N1-(3-(benzo[d]thiazol-2-yl)-4,5,6,7-tetrahydrothieno[2,3-c]pyridin-2-yl)-N25-((S)-1-((2S,4R)-4-hydroxy-2-((4-(4-methylthiazol-5-yl)benzyl)carbamoyl)pyrrolidin-1-yl)-3,3-dimethyl-1-oxobutan-2-yl)-7,10,13,16,19,22-hexaoxa-4-azapentacosanediamide], for which the IC50 was below 300 nM in test [1] and above 10000 nM on c-Myc/Max/Ebox DNA.

Turning to `COCCNCCC(=O)Nc1sc2c(c1-c1nc3c(-n4cnc(C)c4)cccc3s1)CCNC2` [Compound 592, 3-((2-Methoxyethyl)amino)-N-(3-(4-(4-methyl-1H-imidazol-1-yl)benzo[d]thiazol-2-yl)-4,5,6,7-tetrahydrothieno[2,3-c]pyridin-2-yl)propanamide trihydrochloride], the IC50 (in test [1]; at c-Myc/Max/Ebox DNA) was below 300 nM each time.

For `CC[C@H](C)NCCC(=O)Nc1sc2c(c1-c1nc3cc(-c4ccncc4)ccc3s1)CCN(C1CCC1)C2` [Compound 595, (S)-3-(sec-butylamino)-N-(6-cyclobutyl-3-(5-(pyridin-4-yl)benzo[d]thiazol-2-yl)-4,5,6,7-tetrahydrothieno[2,3-c]pyridin-2-yl)propanamide], the IC50 in test [1] is 300 to 1000 nM; on c-Myc/Max/Ebox DNA, below 300 nM.

`CC[C@H](C)NCCC(=O)Nc1sc2c(c1-c1nc3ccccc3s1)CCN(C1CC1)C2` [Compound 596, (S)—N-(3-(benzo[d]thiazol-2-yl)-6-cyclopropyl-4,5,6,7-tetrahydrothieno[2,3-c]pyridin-2-yl)-3-(sec-butylamino)propanamide]: the IC50 in test [1] is 300 to 1000 nM; on c-Myc/Max/Ebox DNA, above 10000 nM.

As for `O=C(CCN[C@@H]1C[C@H]2CNC[C@H]2C1)Nc1sc2c(c1-c1nc3cc(-c4ccncc4)ccc3s1)CCNC2` [Compound 606, 3-(((3aR,5s,6aS)-octahydrocyclopenta[c]pyrrol-5-yl)amino)-N-(3-(5-(pyridin-4-yl)benzo[d]thiazol-2-yl)-4,5,6,7-tetrahydrothieno[2,3-c]pyridin-2-yl)propanamide], the IC50 in test [1] was 300 to 1000 nM; on c-Myc/Max/Ebox DNA it was below 300 nM.

Consider `COCCNCCC(=O)Nc1sc2c(c1-c1nc3c(OC)cccc3s1)CCNC2` [Compound 613, N-(3-(4-Methoxybenzo[d]thiazol-2-yl)-4,5,6,7-tetrahydrothieno[2,3-c]pyridin-2-yl)-3-((2-methoxyethyl)amino)propanamide dihydrochloride], for which the IC50 in test [1] is 300 to 1000 nM; at c-Myc/Max/Ebox DNA, 1000 to 10000 nM.

Consider `CC[C@H](C)NCCC(=O)Nc1sc2c(c1-c1nc3cc(-c4ccncc4)ccc3s1)CCN(C1CC1)C2` [Compound 618, (S)-3-(sec-butylamino)-N-(6-cyclopropyl-3-(5-(pyridin-4-yl)benzo[d]thiazol-2-yl)-4,5,6,7-tetrahydrothieno[2,3-c]pyridin-2-yl)propanamide], for which the IC50 (in test [1]; on c-Myc/Max/Ebox DNA) was below 300 nM in each case.

As for `CC[C@H](C)NCCC(=O)Nc1sc2c(c1-c1nc3ccccc3s1)CCN(C1CC(F)(F)C1)C2` [Compound 619, (S)—N-(3-(benzo[d]thiazol-2-yl)-6-(3,3-difluorocyclobutyl)-4,5,6,7-tetrahydrothieno[2,3-c]pyridin-2-yl)-3-(sec-butylamino)propanamide], the IC50 in test [1] was below 300 nM; at c-Myc/Max/Ebox DNA, 1000 to 10000 nM.

For the compound `CCOC(=O)CCOCCOCCOCCOCCOCCOCCNCCC(=O)Nc1sc2c(c1-c1nc3ccccc3s1)CCNC2` [Compound 622, Ethyl 1-((3-(benzo[d]thiazol-2-yl)-4,5,6,7-tetrahydrothieno[2,3-c]pyridin-2-yl)amino)-1-oxo-7,10,13,16,19,22-hexaoxa-4-azapentacosan-25-oate], the IC50 (in test [1]; at c-Myc/Max/Ebox DNA) was below 300 nM throughout.

In the case of `O=C(O)CCOCCOCCOCCOCCOCCOCCNCCC(=O)Nc1sc2c(c1-c1nc3ccccc3s1)CCNC2` [Compound 623], the IC50 (in test [1]; on c-Myc/Max/Ebox DNA) was below 300 nM throughout.

In the case of `CCC(C)NCCC(=O)Nc1sc2c(c1-c1nc3cc(-n4cnc(C)c4)ccc3s1)CCNC2` (stereo not drawn) [compound 149], the IC50 (in test [1]; at c-Myc/Max/Ebox DNA) was below 300 nM throughout.

On to `CCC(C)NCCC(=O)Nc1sc2c(c1-c1nc3cc(-c4cccnc4)ccc3s1)CCNC2` (stereo not drawn) [compound 150], for which the IC50 (in test [1]; at c-Myc/Max/Ebox DNA) was below 300 nM each time.

As for `CCC(C)NCCC(=O)Nc1sc2c(c1-c1nc3cc(-c4cn[nH]c4)ccc3s1)CCNC2` (stereo not drawn) [compound 151], the IC50 (in test [1]; at c-Myc/Max/Ebox DNA) was below 300 nM each time.

For the compound `CC(C)NCCC(=O)Nc1sc2c(c1-c1nc3cc(-c4cnn(C)c4)ccc3s1)CCNC2` [compound 161], the IC50 (in test [1]; on c-Myc/Max/Ebox DNA) was below 300 nM each time.

As to `CC(C)NCCC(=O)Nc1sc2c(c1-c1nc3cc(C4=CCOCC4)ccc3s1)CCNC2` [compound 165], the IC50 (in test [1]; on c-Myc/Max/Ebox DNA) was below 300 nM each time.

On to `CC(C)NCCC(=O)Nc1sc2c(c1-c1nc3cc(-n4cnc(Cl)c4)ccc3s1)CCNC2` [compound 173], for which the IC50 (in test [1]; at c-Myc/Max/Ebox DNA) was below 300 nM each time.

`COCCNCCC(=O)Nc1sc2c(c1-c1nc3cc(-n4cnc(C)c4)ccc3s1)CCNC2` [compound 180]: the IC50 (in test [1]; on c-Myc/Max/Ebox DNA) was below 300 nM in each case.

Consider `CC(C)NCCC(=O)Nc1sc2c(c1-c1nc3cc(-c4ccc(S(C)(=O)=O)cc4)ccc3s1)CCNC2` [compound 181], for which the IC50 (in test [1]; on c-Myc/Max/Ebox DNA) was below 300 nM each time.

As to `COCCNCCC(=O)Nc1sc2c(c1-c1nc3cc(-c4cnn(C)c4)ccc3s1)CCNC2` [compound 184], the IC50 (in test [1]; at c-Myc/Max/Ebox DNA) was below 300 nM throughout.

Regarding `Cc1cn(-c2ccc3nc(-c4c(NC(=O)CCNC(C)C)sc5c4CCNC5)sc3c2)cn1` [compound 186], the IC50 (in test [1]; on c-Myc/Max/Ebox DNA) was below 300 nM throughout.

Take `CC(C)NCCC(=O)Nc1sc2c(c1-c1nc3ccc(-c4ccncc4)cc3s1)CCNC2` [compound 192]: the IC50 (in test [1]; at c-Myc/Max/Ebox DNA) was below 300 nM each time.

`CC(C)NCCC(=O)Nc1sc2c(c1-c1nc3ccc(-c4cccnc4)cc3s1)CCNC2` [compound 193]: the IC50 (in test [1]; on c-Myc/Max/Ebox DNA) was below 300 nM throughout.

For `CC(C)NCCC(=O)Nc1sc2c(c1-c1nc3ccc(C4=CCNCC4)cc3s1)CCNC2` [compound 194], the IC50 (in test [1]; on c-Myc/Max/Ebox DNA) was below 300 nM throughout.

Take `CC(C)NCCC(=O)Nc1sc2c(c1-c1nc3cc(N4CCOCC4)ccc3s1)CCNC2` [compound 302]: the IC50 (in test [1]; at c-Myc/Max/Ebox DNA) was below 300 nM each time.

On to `COCCNCCC(=O)Nc1sc2c(c1-c1nc3cc(-c4ccncc4)ccc3s1)CCNC2` [compound 308], for which the IC50 (in test [1]; at c-Myc/Max/Ebox DNA) was below 300 nM throughout.

Regarding `COc1ccc2sc(-c3c(NC(=O)CCNC(C)C)sc4c3CCNC4)nc2c1` [compound 316], the IC50 (in test [1]; at c-Myc/Max/Ebox DNA) was below 300 nM each time.

Consider `COCCNCCC(=O)Nc1sc2c(c1-c1nc3cc(-c4ccc(C(=O)N5CCOCC5)cc4)ccc3s1)CCNC2` [compound 334], for which the IC50 (in test [1]; on c-Myc/Max/Ebox DNA) was below 300 nM throughout.

As to `COCCNCCC(=O)Nc1sc2c(c1-c1nc3cc(-c4cncc(F)c4)ccc3s1)CCNC2` [compound 337], the IC50 (in test [1]; on c-Myc/Max/Ebox DNA) was below 300 nM in each case.

As for `COCCNCCC(=O)Nc1sc2c(c1-c1nc3ccc(-c4cn[nH]c4)cc3s1)CCNC2` [compound 339], the IC50 (in test [1]; on c-Myc/Max/Ebox DNA) was below 300 nM throughout.

With `COCCNCCC(=O)Nc1sc2c(c1-c1nc3cc(-c4ccnc(NC(C)=O)c4)ccc3s1)CCNC2` [compound 342], the IC50 (in test [1]; at c-Myc/Max/Ebox DNA) was below 300 nM each time.

Consider `COCCNCCC(=O)Nc1sc2c(c1-c1nc3cc(-c4cnc(N)nc4)ccc3s1)CCNC2` [compound 345], for which the IC50 (in test [1]; on c-Myc/Max/Ebox DNA) was below 300 nM in each case.

As to `COCCNCCC(=O)Nc1sc2c(c1-c1nc3cc(-c4cncc(OC)c4)ccc3s1)CCNC2` [compound 349], the IC50 (in test [1]; at c-Myc/Max/Ebox DNA) was below 300 nM each time.

For the compound `COCCNCCC(=O)Nc1sc2c(c1-c1nc3ccc(-c4cc(C)[nH]n4)cc3s1)CCNC2` [compound 355], the IC50 (in test [1]; on c-Myc/Max/Ebox DNA) was below 300 nM each time.

For `COCCNCCC(=O)Nc1sc2c(c1-c1nc3ccc(-c4cnn(C(C)C)c4)cc3s1)CCNC2` [compound 358], the IC50 (in test [1]; at c-Myc/Max/Ebox DNA) was below 300 nM throughout.

As to `COCCNCCC(=O)Nc1sc2c(c1-c1nc3ccc(-c4cc[nH]n4)cc3s1)CCNC2` [compound 361], the IC50 (in test [1]; on c-Myc/Max/Ebox DNA) was below 300 nM throughout.

In the case of `CCN(CC)c1ccc(-c2ccc3sc(-c4c(NC(=O)CCNCCOC)sc5c4CCNC5)nc3c2)cc1` [compound 365], the IC50 (in test [1]; on c-Myc/Max/Ebox DNA) was below 300 nM each time.

For the compound `COCCNCCC(=O)Nc1sc2c(c1-c1nc3ccc(-c4ccc(O)nc4)cc3s1)CCNC2` [compound 374], the IC50 (in test [1]; on c-Myc/Max/Ebox DNA) was below 300 nM in each case.

On to `COCCNCCC(=O)Nc1sc2c(c1-c1nc3ccc(-c4ccc(C#N)nc4)cc3s1)CCNC2` [compound 391], for which the IC50 (in test [1]; at c-Myc/Max/Ebox DNA) was below 300 nM each time.
